Data taken from the supplement of paper PMC10307832.

How the values were obtained:
Assay in all cases: relative viability (nuclei count vs DMSO), 5 days (fraction); higher = more cells survive
H3255 = tested on: H3255
In short: (§1)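 Lung cancer cell lines were seeded in 1536-well plates and dosed by pin tool the next day, with either a single drug or a fixed anchor-drug dose combined with five library-drug doses (not always all listed) spaced in √10 steps. Five days later, one step fixed the cells and stained their nuclei (final 0.05% Triton X-100, 1% formaldehyde, 1 ug/ml Hoechst), and nuclei were counted on 4× images. Relative viability is the nuclei count in treated wells divided by the count in vehicle wells, and each value is the median of duplicate plates.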

COR-L 105 = tested on: COR-L 105
In short: as §1

SK-MES-1 = tested on: SK-MES-1
In short: as §1

EMC-BAC-2 = tested on: EMC-BAC-2
In short: as §1

NCI-H1734 = tested on: NCI-H1734
In short: as §1

A-427 = tested on: A-427
In short: as §1

NCI-H441 = tested on: NCI-H441
In short: as §1

NCI-H23 = tested on: NCI-H23
In short: as §1

PC-3 [JPC-3] = tested on: PC-3 [JPC-3]
In short: as §1

LOU-NH91 = tested on: LOU-NH91
In short: as §1

ChaGo-K-1 = tested on: ChaGo-K-1
In short: as §1

NCI-H1975 = tested on: NCI-H1975
In short: as §1

NCI-H1755 = tested on: NCI-H1755
In short: as §1

NCI-H2170 = tested on: NCI-H2170
In short: as §1

LK-2 = tested on: LK-2
In short: as §1

NCI-H596 = tested on: NCI-H596
In short: as §1

NCI-H1666 = tested on: NCI-H1666
In short: as §1

HCC-366 = tested on: HCC-366
In short: as §1

EKVX = tested on: EKVX
In short: as §1

NCI-H520 = tested on: NCI-H520
In short: as §1

NCI-H1563 = tested on: NCI-H1563
In short: as §1

SW 900 = tested on: SW 900
In short: as §1

SMILES: COc1nc(C)cnc1NS(=O)(=O)c1cccnc1-c1ccc(-c2nnco2)cc1 [Zibotentan] + COc1cccc2cc(-c3nc([C@H]4CC[C@H](C(=O)O)CC4)n4ncnc(N)c34)[nH]c12 [OSI-027] (partner 0.5 µM)
- relative viability (H3255; first compound 0.08 µM): 0.536
- relative viability (H3255; first compound 0.253 µM): 0.542
- relative viability (H3255; first compound 0.8 µM): 0.576
- relative viability (H3255; first compound 2.53 µM): 0.526
- relative viability (COR-L 105; first compound 0.08 µM): 0.822
- relative viability (COR-L 105; first compound 0.253 µM): 0.618
- relative viability (COR-L 105; first compound 0.8 µM): 0.941
- relative viability (COR-L 105; first compound 2.53 µM): 0.909
- relative viability (SK-MES-1; first compound 0.08 µM): 0.595
- relative viability (SK-MES-1; first compound 0.253 µM): 0.228
- relative viability (SK-MES-1; first compound 0.8 µM): 0.555
- relative viability (SK-MES-1; first compound 2.53 µM): 0.702
- relative viability (EMC-BAC-2; first compound 0.08 µM): 0.376
- relative viability (EMC-BAC-2; first compound 0.8 µM): 0.381
- relative viability (EMC-BAC-2; first compound 2.53 µM): 0.414
- relative viability (NCI-H1734; first compound 0.08 µM): 0.655
- relative viability (NCI-H1734; first compound 0.253 µM): 0.558
- relative viability (NCI-H1734; first compound 0.8 µM): 0.604
- relative viability (NCI-H1734; first compound 2.53 µM): 0.668
- relative viability (A-427; first compound 0.08 µM): 0.54
- relative viability (A-427; first compound 0.253 µM): 0.425
- relative viability (A-427; first compound 0.8 µM): 0.501
- relative viability (A-427; first compound 2.53 µM): 0.579
- relative viability (NCI-H441; first compound 0.08 µM): 0.823
- relative viability (NCI-H441; first compound 0.253 µM): 0.404
- relative viability (NCI-H441; first compound 0.8 µM): 0.818
- relative viability (NCI-H441; first compound 2.53 µM): 0.752
- relative viability (NCI-H23; first compound 0.08 µM): 0.63
- relative viability (NCI-H23; first compound 0.253 µM): 0.619
- relative viability (NCI-H23; first compound 0.8 µM): 0.389
- relative viability (NCI-H23; first compound 2.53 µM): 0.743
- relative viability (PC-3 [JPC-3]; first compound 0.08 µM): 0.789
- relative viability (PC-3 [JPC-3]; first compound 0.253 µM): 0.791
- relative viability (PC-3 [JPC-3]; first compound 0.8 µM): 0.737
- relative viability (PC-3 [JPC-3]; first compound 2.53 µM): 0.89
- relative viability (LOU-NH91; first compound 0.08 µM): 0.673
- relative viability (LOU-NH91; first compound 0.253 µM): 0.681
- relative viability (LOU-NH91; first compound 0.8 µM): 0.732
- relative viability (LOU-NH91; first compound 2.53 µM): 0.784
- relative viability (ChaGo-K-1; first compound 0.08 µM): 0.547
- relative viability (ChaGo-K-1; first compound 0.253 µM): 0.579
- relative viability (ChaGo-K-1; first compound 0.8 µM): 0.583
- relative viability (ChaGo-K-1; first compound 2.53 µM): 0.604
- relative viability (NCI-H1975; first compound 0.08 µM): 0.783
- relative viability (NCI-H1975; first compound 0.253 µM): 0.696
- relative viability (NCI-H1975; first compound 0.8 µM): 0.566
- relative viability (NCI-H1975; first compound 2.53 µM): 0.661
- relative viability (NCI-H1755; first compound 0.08 µM): 0.716
- relative viability (NCI-H1755; first compound 0.253 µM): 0.685
- relative viability (NCI-H1755; first compound 0.8 µM): 0.715
- relative viability (NCI-H1755; first compound 2.53 µM): 0.793
- relative viability (NCI-H2170; first compound 0.08 µM): 0.702
- relative viability (NCI-H2170; first compound 0.253 µM): 0.761
- relative viability (NCI-H2170; first compound 0.8 µM): 0.64
- relative viability (NCI-H2170; first compound 2.53 µM): 0.791
- relative viability (LK-2; first compound 0.08 µM): 0.207
- relative viability (LK-2; first compound 0.253 µM): 0.173
- relative viability (LK-2; first compound 0.8 µM): 0.244
- relative viability (LK-2; first compound 2.53 µM): 0.216
- relative viability (NCI-H596; first compound 0.08 µM): 0.776
- relative viability (NCI-H596; first compound 0.253 µM): 0.643
- relative viability (NCI-H596; first compound 0.8 µM): 0.52
- relative viability (NCI-H596; first compound 2.53 µM): 0.717
- relative viability (NCI-H1666; first compound 0.08 µM): 0.929
- relative viability (NCI-H1666; first compound 0.253 µM): 0.751
- relative viability (NCI-H1666; first compound 0.8 µM): 0.814
- relative viability (NCI-H1666; first compound 2.53 µM): 0.877
- relative viability (HCC-366; first compound 0.08 µM): 0.922
- relative viability (HCC-366; first compound 0.253 µM): 0.884
- relative viability (HCC-366; first compound 0.8 µM): 0.389
- relative viability (HCC-366; first compound 2.53 µM): 1.1
- relative viability (EKVX; first compound 0.08 µM): 0.715
- relative viability (EKVX; first compound 0.253 µM): 0.706
- relative viability (EKVX; first compound 0.8 µM): 0.695
- relative viability (EKVX; first compound 2.53 µM): 0.77
- relative viability (NCI-H520; first compound 0.08 µM): 0.295
- relative viability (NCI-H520; first compound 0.253 µM): 0.24
- relative viability (NCI-H520; first compound 0.8 µM): 0.264
- relative viability (NCI-H520; first compound 2.53 µM): 0.31
- relative viability (NCI-H1563; first compound 0.08 µM): 0.767
- relative viability (NCI-H1563; first compound 0.8 µM): 0.761
- relative viability (NCI-H1563; first compound 2.53 µM): 0.77
- relative viability (SW 900; first compound 0.08 µM): 0.623
- relative viability (SW 900; first compound 0.253 µM): 0.607
- relative viability (SW 900; first compound 0.8 µM): 0.528
- relative viability (SW 900; first compound 2.53 µM): 0.496
